Experimental data reported in patent US20180327367A1, “MACROCYCLIC BROAD SPECTRUM ANTIBIOTICS” (priority 2015, published 2018).
pIC50: −log10 of the molar value. In brackets after ≈: the same amount, converted by molar mass. Where two headings read alike, the source gives them in different places.

Experiments:
[1] = tested on: Escherichia coli MC4100 harboring the IMP4213 (E. coli IMP); assay: microbe, parasite or virus in culture; assay type: cell-based; conditions: Escherichia coli, 22 h, read-out: MIC (μg/mL) E. coli IMP, E. coli MC4100 IMP4213, increased outer-membrane permeability; 35° C., 22 hours
Outline: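 Broth micro-dilution per CLSI in cation-adjusted Mueller Hinton Broth with 0.002% Tween-80; E. coli MC4100 carries IMP4213, raising outer-membrane permeability. Compounds tested as 2-fold serial dilutions (10 concentrations) from 4 μg/mL (protocol 2) or 0.5 μg/mL (protocol 3); inoculum OD600 0.0005, 35° C for 22 hours.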

[2] = tested on: Escherichia coli ATCC 25922; assay: Minimum inhibitory concentration, broth micro-dilution (CLSI), E. coli; assay type: cell-based; conditions: Escherichia coli, ATCC25922, 22 h, 35° C., 22 hours
[3] = molecular target: T1, SpsB (Staphylococcus aureus signal peptidase) (Staphylococcus aureus, UniProt P0A070); assay: cell-based; assay type: biochemical; conditions: SpsB IC50, whole-cell S. aureus (USA300 background, overexpressing SpsB) as SpsB source; fluorogenic peptide substrate, kinetic read 30 min
T1 construct: This assay uses a suspension of Staphylococcus aureus cells as a source of SpsB instead of recombinant SpsB protein; endogenous in cells; host or cells: S. aureus, USA300 background, overexpressing SpsB (whole-cell suspension from frozen pellets)
Procedure: A kinetic fluorogenic enzyme activity assay was used to assess inhibition of SpsB (Staphylococcus aureus signal peptidase) activity and IC50s were determined. This assay uses a suspension of Staphylococcus aureus cells as a source of SpsB instead of recombinant SpsB protein.
Cell preparation: Luria broth (LB) was inoculated with S. aureus (USA300 background, overexpressing SpsB) and shaken at 37° C. until an OD600 nm of 1.5-2.0 was reached (˜4 hr). The culture was then diluted to an OD600 nm of 1.0 with LB, aliquoted and centrifuged at 10,000×g for 2 mins. The supernatant was removed and the pellet was resuspended in phosphate buffer (1×PBS, 12.5 mg/L MgCl2, 25 mg/L CaCl2, 0.1% Tween-80) to an OD600 nm of 0.5, then centrifuged again at 10,000x g for 2 mins. The supernatant was removed and the pellets were frozen at −20° C.
Test compounds were prepared in DMSO at a concentration of 10 mg/mL. These compound stocks were diluted into DMSO to a concentration of 25 μg/mL and serial 3-fold dilutions were made in DMSO, for a total of 11 compound concentrations. 20 nL of each compound solution was pre-spotted into a white 384-well plate (50 μL/well polypropylene, Nunc) using acoustic fluid transfer (Echo).
Frozen S. aureus pellets were resuspended in assay buffer (1x PBS, 12.5 mg/L MgCl2, 25 mg/L CaCl2, 0.1% Tween-80) to an OD600 nm of 0.05, then mixed 1:1 (v/v) with 20 μM substrate ((Dabcyl)βAla-KPAKAAE(Edans)) in assay buffer, and this solution was added (20 μL/well) to the 384-well plate that had been pre-spotted with compound. Fluorescence intensity was then immediately read kinetically for 30 minutes with 2 minute read intervals to monitor cleavage of the internally quenched peptide substrate (excitation wavelength=340 nm, emission wavelength=490 nm, Molecular Devices Spectramax M5). Reaction rate (slope) was plotted against inhibitor concentration to derive the IC50.

[4] = tested on: Methicillin Resistant Staphylococcus aureus strain USA 300, NRS384; assay: Minimum inhibitory concentration, broth micro-dilution (CLSI), S. aureus; assay type: cell-based; conditions: Staphylococcus aureus, MRSA / NRS 384 / USA300, 22 h, 35° C., 22 hours
Outline: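 Colonies grown 20 hours at 35° C were suspended in cation-adjusted Mueller Hinton Broth with 0.002% Tween-80. Cells were then added to 2-fold compound dilutions starting at 4 or 0.5 μg/mL, at OD600 0.0005.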

[5] = E. coli ATCC 25922, read-out: MIC (μg/mL) E. coli
[6] = MRSA USA 300 NRS384, read-out: MIC (μg/mL) S. aureus
[7] = read-out: MIC (μg/mL) E. coli, E. coli ATCC 25922
[8] = read-out: MIC (μg/mL) S. aureus, MRSA USA 300 NRS384

T1 sequence (P0A070 whole entry): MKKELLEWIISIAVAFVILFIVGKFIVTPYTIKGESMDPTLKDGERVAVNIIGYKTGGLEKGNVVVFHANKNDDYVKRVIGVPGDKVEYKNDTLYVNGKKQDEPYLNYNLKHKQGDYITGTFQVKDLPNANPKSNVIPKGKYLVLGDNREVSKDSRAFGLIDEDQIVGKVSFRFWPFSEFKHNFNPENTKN

SMILES	MIC [1]	MIC [2, 5]	pIC50 [3]	MIC [4, 6]	MIC [2, 7]	MIC [4, 8]
CCCCc1ccc(-c2ccc(C(=O)N[C@@H](CCCCN)C(=O)N(C)[C@@H]3C(=O)N[C@@H](C)C(=O)N[C@H](C(=O)N[C@H](C)C#N)Cc4ccc(OCCN)c(c4)-c4cc3ccc4OCCN)cc2)cc1 [Compound 136]	0.38 µg/mL (≈ 0.415 µM)	8 µg/mL (≈ 8.73 µM)	8.00	2 µg/mL (≈ 2.18 µM)	–	–
CCCCc1ccc(-c2cccc(C(=O)N[C@@H](CCCCN)C(=O)N(C)[C@@H]3C(=O)N[C@@H](C)C(=O)N[C@H](C(=O)NCC#N)Cc4ccc(OCCN)c(c4)-c4cc3ccc4OCCN)c2)cc1 [Compound 137]	0.063 µg/mL (≈ 0.0698 µM)	4 µg/mL (≈ 4.43 µM)	8.96	0.063 µg/mL (≈ 0.0698 µM)	–	–
C[C@@H]1NC(=O)[C@@H](N(C)C(=O)[C@H](CCN)NC(=O)c2ccc(-c3ccc4c(c3)CCCC4)cc2)c2ccc(OCCN)c(c2)-c2cc(ccc2OCCN)C[C@@H](C(=O)NCC#N)NC1=O [Compound 138]	0.055 µg/mL (≈ 0.0631 µM)	–	9.03	–	0.25 µg/mL (≈ 0.287 µM)	0.063 µg/mL (≈ 0.0722 µM)
C[C@@H]1NC(=O)[C@@H](N(C)C(=O)[C@H](CCN)NC(=O)c2ccc(-c3ccc4c(c3)CCCC4)cc2F)c2ccc(OCCN)c(c2)-c2cc(ccc2OCCN)C[C@@H](C(=O)NCC#N)NC1=O [Compound 139]	0.012 µg/mL (≈ 0.0135 µM)	–	9.03	–	0.25 µg/mL (≈ 0.281 µM)	0.047 µg/mL (≈ 0.0528 µM)
C[C@@H]1NC(=O)[C@@H](N(C)C(=O)[C@H](CCN)NC(=O)c2ccc(-c3ccc4c(c3)CCCC4)cc2Cl)c2ccc(OCCN)c(c2)-c2cc(ccc2OCCN)C[C@@H](C(=O)NCC#N)NC1=O [Compound 140]	0.0078 µg/mL (≈ 0.0086 µM)	–	9.00	–	0.13 µg/mL (≈ 0.143 µM)	0.031 µg/mL (≈ 0.0342 µM)
CCCCc1ccc(-c2ccc(C(=O)N[C@@H](CCCN)C(=O)N(C)[C@@H]3C(=O)N[C@@H](C)C(=O)N[C@H](C(=O)NCC#N)Cc4ccc(OCCN)c(c4)-c4cc3ccc4OCCN)c(C)c2)cc1 [Compound 142]	0.042 µg/mL (≈ 0.0466 µM)	0.16 µg/mL (≈ 0.177 µM)	9.14	0.039 µg/mL (≈ 0.0432 µM)	–	–
Cc1cc(-c2ccc(C(F)(F)F)cc2)ccc1C(=O)N[C@@H](CCN)C(=O)N(C)[C@@H]1C(=O)N[C@@H](C)C(=O)N[C@H](C(=O)NCC#N)Cc2ccc(OCCN)c(c2)-c2cc1ccc2OCCN [Compound 143]	0.018 µg/mL (≈ 0.02 µM)	0.44 µg/mL (≈ 0.489 µM)	9.24	0.047 µg/mL (≈ 0.0522 µM)	–	–
Cc1cc(-c2ccc(-c3ccccc3)cc2)ccc1C(=O)N[C@@H](CCN)C(=O)N(C)[C@@H]1C(=O)N[C@@H](C)C(=O)N[C@H](C(=O)NCC#N)Cc2ccc(OCCN)c(c2)-c2cc1ccc2OCCN [Compound 144]	0.053 µg/mL (≈ 0.0584 µM)	0.16 µg/mL (≈ 0.176 µM)	9.04	0.031 µg/mL (≈ 0.0341 µM)	–	–
Cc1cc(-c2ccc(C(C)C)cc2)ccc1C(=O)N[C@@H](CCN)C(=O)N(C)[C@@H]1C(=O)N[C@@H](C)C(=O)N[C@H](C(=O)NCC#N)Cc2ccc(OCCN)c(c2)-c2cc1ccc2OCCN [Compound 145]	0.012 µg/mL (≈ 0.0137 µM)	0.16 µg/mL (≈ 0.183 µM)	9.23	0.047 µg/mL (≈ 0.0538 µM)	–	–
Cc1cc(-c2ccc(CC(C)C)cc2)ccc1C(=O)N[C@@H](CCN)C(=O)N(C)[C@@H]1C(=O)N[C@@H](C)C(=O)N[C@H](C(=O)NCC#N)Cc2ccc(OCCN)c(c2)-c2cc1ccc2OCCN [Compound 146]	0.0078 µg/mL (≈ 0.00878 µM)	< 0.063 µg/mL	9.05	0.047 µg/mL (≈ 0.0529 µM)	–	–
C[C@@H]1NC(=O)[C@@H](N(C)C(=O)[C@H](CCN)NC(=O)c2ccc(-c3ccc(Cl)cc3)cc2)c2ccc(OCCN)c(c2)-c2cc(ccc2OCCN)C[C@@H](C(=O)NCC#N)NC1=O [Compound 147]	0.023 µg/mL (≈ 0.027 µM)	–	9.16	–	1.5 µg/mL (≈ 1.76 µM)	0.094 µg/mL (≈ 0.11 µM)
Cc1cc(-c2ccc(Cl)cc2)ccc1C(=O)N[C@@H](CCN)C(=O)N(C)[C@@H]1C(=O)N[C@@H](C)C(=O)N[C@H](C(=O)NCC#N)Cc2ccc(OCCN)c(c2)-c2cc1ccc2OCCN [Compound 148]	0.0098 µg/mL (≈ 0.0113 µM)	0.88 µg/mL (≈ 1.02 µM)	9.12	0.055 µg/mL (≈ 0.0635 µM)	–	–
Cc1cc(-c2ccccc2)ccc1C(=O)N[C@@H](CCN)C(=O)N(C)[C@@H]1C(=O)N[C@@H](C)C(=O)N[C@H](C(=O)NCC#N)Cc2ccc(OCCN)c(c2)-c2cc1ccc2OCCN [Compound 149]	0.023 µg/mL (≈ 0.0276 µM)	3 µg/mL (≈ 3.61 µM)	9.10	0.19 µg/mL (≈ 0.228 µM)	–	–
Cc1cc(-c2ccccc2)ccc1C(=O)N[C@@H](CCCN)C(=O)N(C)[C@@H]1C(=O)N[C@@H](C)C(=O)N[C@H](C(=O)NCC#N)Cc2ccc(OCCN)c(c2)-c2cc1ccc2OCCN [Compound 150]	0.063 µg/mL (≈ 0.0745 µM)	4 µg/mL (≈ 4.73 µM)	9.09	0.25 µg/mL (≈ 0.296 µM)	–	–
CCc1ccc(-c2ccc(C(=O)N[C@@H](CCN)C(=O)N(C)[C@@H]3C(=O)N[C@@H](C)C(=O)N[C@H](C(=O)NCC#N)Cc4ccc(OCCN)c(c4)-c4cc3ccc4OCCN)c(C)c2)cc1 [Compound 151]	0.012 µg/mL (≈ 0.014 µM)	0.31 µg/mL (≈ 0.36 µM)	9.23	0.031 µg/mL (≈ 0.036 µM)	–	–
CCc1ccc(-c2ncc(C(=O)N[C@@H](CCN)C(=O)N(C)[C@@H]3C(=O)N[C@@H](C)C(=O)N[C@H](C(=O)NCC#N)Cc4ccc(OCCN)c(c4)-c4cc3ccc4OCCN)c(C)n2)cc1 [Compound 155]	0.0098 µg/mL (≈ 0.0114 µM)	0.44 µg/mL (≈ 0.51 µM)	8.60	0.13 µg/mL (≈ 0.151 µM)	–	–
Cc1nc(-c2ccc(CC(C)C)cc2)ncc1C(=O)N[C@@H](CCN)C(=O)N(C)[C@@H]1C(=O)N[C@@H](C)C(=O)N[C@H](C(=O)NCC#N)Cc2ccc(OCCN)c(c2)-c2cc1ccc2OCCN [Compound 157]	0.0034 µg/mL (≈ 0.00382 µM)	0.098 µg/mL (≈ 0.11 µM)	9.10	0.023 µg/mL (≈ 0.0258 µM)	–	–
CCCCCCc1ccc(-c2ncc(C(=O)N[C@@H](CCN)C(=O)N(C)[C@@H]3C(=O)N[C@@H](C)C(=O)N[C@H](C(=O)NCC#N)Cc4ccc(OCCN)c(c4)-c4cc3ccc4OCCN)c(C)n2)cc1 [Compound 159]	< 0.0039 µg/mL	0.13 µg/mL (≈ 0.142 µM)	9.09	0.063 µg/mL (≈ 0.0686 µM)	–	–
Cc1nc(-c2ccc(C(C)C)cc2)ncc1C(=O)N[C@@H](CCN)C(=O)N(C)[C@@H]1C(=O)N[C@@H](C)C(=O)N[C@H](C(=O)NCC#N)Cc2ccc(OCCN)c(c2)-c2cc1ccc2OCCN [Compound 160]	0.0039 µg/mL (≈ 0.00445 µM)	0.13 µg/mL (≈ 0.148 µM)	9.18	0.047 µg/mL (≈ 0.0537 µM)	–	–
CCCCCc1ccc(-c2ncc(C(=O)N[C@@H](CCN)C(=O)N(C)[C@@H]3C(=O)N[C@@H](C)C(=O)N[C@H](C(=O)NCC#N)Cc4ccc(OCCN)c(c4)-c4cc3ccc4OCCN)c(C)n2)cc1 [Compound 162]	0.0025 µg/mL (≈ 0.00277 µM)	0.063 µg/mL (≈ 0.0697 µM)	9.14	0.023 µg/mL (≈ 0.0254 µM)	–	–
